Here are results for eleven compounds from ChEMBL document CHEMBL1201862, “PubChem BioAssay data set” (2004).

Test systems include 786-0; CAKI-1; CCRF-CEM; HCC 2998; HCT-15; HL-60; HOP-92; HT-29; M14; NCI-H226; NCI-H23; NCI-H460; OVCAR-5; SF-268; SK-MEL-5; SNB-19; SR; EKVX; SN12C; SK-OV-3.
Holding throughout (experiment): inhibition of tumour cell growth, NCI panel, 48 h

Structures are written as SMILES.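 Values below derive from 48-hour exposures of cells grown in 96-well plates, with endpoints linearly interpolated between the two concentrations bracketing the appropriate inhibition level. At the GI50, growth is halved.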 Active and inactive are the calls of the source. Rule as the data show it: active = GI50 up to about 1.1 µM and inactive = higher.

With `O=[N+]([O-])/C=C/c1ccc(Cl)cc1Cl`, the GI50 is 15.6 µM (inactive) with 786-0; 16.3 µM (inactive) in the experiment with CAKI-1; 3.62 µM (inactive) in the experiment on CCRF-CEM; 15.5 µM (inactive) with HCC 2998; 15 µM in the experiment on HCT-15; 5.26 µM (inactive) with HL-60. Also, the GI50 in the experiment with HOP-92 was 15.3 µM (inactive); in the experiment with HT-29 it was 5.77 µM (inactive); in the experiment with M14 it was 11.7 µM (inactive); in the experiment on NCI-H226, 17.6 µM (inactive); in the experiment with NCI-H23 it was 19.2 µM (inactive); in the experiment with NCI-H460, 17.9 µM (inactive). Further, the GI50 in the experiment on OVCAR-5 was 17.8 µM (inactive); in the experiment on SF-268 it was 21.3 µM (inactive); in the experiment with SK-MEL-5, 15.6 µM (inactive); with SNB-19, 17.8 µM (inactive); in the experiment with SR it was 11.4 µM (inactive).
With `COc1cc(/C=C2\N=C(c3ccccc3)N(c3nc4ccccc4s3)C2=O)cc(OC)c1OC`, the GI50 is 24.8 µM (inactive) in the experiment with 786-0; 70.6 µM (inactive) in the experiment with CAKI-1; 21.8 µM (inactive) with EKVX; 27.4 µM (inactive) with HCC 2998; 30.3 µM with HCT-15; 60.5 µM (inactive) with HL-60. In addition, the GI50 was 26.2 µM (inactive) in the experiment with HOP-92; 26.9 µM (inactive) in the experiment with HT-29; 31.4 µM (inactive) in the experiment with M14; > 100 µM (inactive) in the experiment on NCI-H226; 31.1 µM (inactive) with NCI-H23; 65.5 µM (inactive) in the experiment with NCI-H460. Moreover, the GI50 in the experiment with OVCAR-5 was > 100 µM (inactive); in the experiment with SF-268, 26.5 µM (inactive); in the experiment on SK-MEL-5, 49.9 µM (inactive); with SN12C it was 26.5 µM (inactive); in the experiment on SNB-19, 34.2 µM (inactive); with SR it was 11.7 µM (inactive).
With `O=C(O)c1ccc(Nc2cnc3cc(C(F)(F)F)ccc3n2)cc1`, the GI50 with 786-0 was 67.6 µM (inactive); in the experiment with CAKI-1, > 100 µM (inactive); with CCRF-CEM it was 57.9 µM (inactive); in the experiment with EKVX, 40.6 µM (inactive); in the experiment with HCC 2998, 30.2 µM (inactive); in the experiment on HCT-15 it was 25.6 µM. Also, the GI50 with HL-60 is 22.8 µM (inactive); in the experiment on HT-29, 63.2 µM (inactive); in the experiment on NCI-H226, 71.3 µM (inactive); in the experiment with NCI-H23, 46.5 µM (inactive); in the experiment with NCI-H460, 36.1 µM (inactive); with OVCAR-5 it was 34 µM (inactive). In addition, the GI50 is > 100 µM (inactive) with SF-268; 40.8 µM (inactive) in the experiment on SK-MEL-5; 85.5 µM (inactive) in the experiment on SN12C; 60 µM (inactive) with SNB-19; 56.1 µM (inactive) with SR.
Turning to `COc1cccc(-c2cc(O)c3cc(N4CCOCC4)ccc3n2)c1`, the GI50 with 786-0 was 0.0411 µM (active); with CAKI-1, 0.0426 µM (active); in the experiment with CCRF-CEM, 0.0288 µM (active); in the experiment with EKVX it was 0.363 µM (active); in the experiment with HCC 2998 it was 0.0656 µM (active); with HCT-15, 0.0383 µM. Besides, the GI50 in the experiment on HL-60 is 0.0194 µM (active); in the experiment on HOP-92 it was 0.0376 µM (active); in the experiment on NCI-H226 it was 0.0383 µM (active); in the experiment with NCI-H23 it was 0.0289 µM (active); in the experiment on NCI-H460 it was 0.177 µM (active); with OVCAR-5 it was 0.151 µM (active). Besides, the GI50 was 0.0552 µM (active) with SF-268; 0.0231 µM (active) in the experiment with SK-MEL-5; 0.0678 µM (active) in the experiment on SN12C; 0.0543 µM (active) in the experiment on SNB-19; 0.0158 µM (active) in the experiment with SR.
As for `N#CC1=C(N2CCOCC2)CCC1`, the GI50 in the experiment on 786-0 was > 100 µM (inactive); with CAKI-1 it was > 100 µM (inactive); with CCRF-CEM, > 100 µM (inactive); in the experiment on EKVX it was > 100 µM (inactive); with HCC 2998, > 100 µM (inactive); with HCT-15, above 100 µM. Moreover, the GI50 in the experiment on HL-60, in the experiment on HT-29, in the experiment with M14, in the experiment with NCI-H226, in the experiment on NCI-H23 and in the experiment with OVCAR-5 was > 100 µM (inactive) in each case. Also, the GI50 in the experiment on SF-268, in the experiment with SK-MEL-5, in the experiment on SK-OV-3, in the experiment with SN12C, with SNB-19 and with SR was > 100 µM (inactive) throughout.
With `c1ccc(-c2nnc3nn4c(-c5ccccc5)cnnc4c3c2-c2ccccc2)cc1`, the GI50 was 0.0794 µM (active) in the experiment on 786-0; 23.7 µM (inactive) with CAKI-1; > 100 µM (inactive) with CCRF-CEM; 19.7 µM (inactive) with EKVX; 48.2 µM (inactive) in the experiment with HCC 2998; above 100 µM in the experiment with HCT-15. For the same compound, the GI50 in the experiment with HL-60 is 3.12 µM (inactive); with HOP-92, 59.8 µM (inactive); with HT-29, 95.3 µM (inactive); in the experiment with M14, > 100 µM (inactive); in the experiment on NCI-H226 it was > 100 µM (inactive); in the experiment on NCI-H23, > 100 µM (inactive). Besides, the GI50 was 75.7 µM (inactive) in the experiment with NCI-H460; > 100 µM (inactive) in the experiment with OVCAR-5; 67.1 µM (inactive) in the experiment with SK-MEL-5; > 100 µM (inactive) with SN12C; 25.2 µM (inactive) in the experiment on SNB-19; > 100 µM (inactive) in the experiment with SR.
Consider `C=CCOC1(CC=C)C(=O)OC2C(O)COC21O` (stereo not drawn), for which the GI50 with 786-0 was > 100 µM (inactive); in the experiment with CAKI-1, > 100 µM (inactive); in the experiment on CCRF-CEM, > 100 µM (inactive); with EKVX, > 100 µM (inactive); with HCC 2998, > 100 µM (inactive); with HCT-15, above 100 µM. For the same compound, the GI50 in the experiment on HL-60, in the experiment with HT-29, in the experiment with M14, in the experiment with NCI-H226, with NCI-H23 and in the experiment on NCI-H460 was > 100 µM (inactive) in each case. The GI50 in the experiment on OVCAR-5, in the experiment on SF-268, with SK-MEL-5, in the experiment on SK-OV-3, in the experiment on SN12C and in the experiment with SNB-19 was > 100 µM (inactive) throughout. In addition, the GI50 in the experiment with SR was > 100 µM (inactive).
In the case of `CNS(=O)(=O)NNS(=O)(=O)c1ccc2ccccc2c1`, the GI50 is > 100 µM (inactive) in the experiment on 786-0; > 100 µM (inactive) in the experiment on CAKI-1; > 100 µM (inactive) in the experiment on CCRF-CEM; > 100 µM (inactive) in the experiment with EKVX; > 100 µM (inactive) with HCC 2998; above 100 µM with HCT-15. Moreover, the GI50 in the experiment with HL-60 was > 100 µM (inactive); with HT-29 it was > 100 µM (inactive); with M14, > 100 µM (inactive); in the experiment on NCI-H226, > 100 µM (inactive); in the experiment on NCI-H23, > 100 µM (inactive); in the experiment on NCI-H460, 40.2 µM (inactive). The GI50 with OVCAR-5, in the experiment on SF-268, in the experiment with SK-MEL-5, in the experiment on SK-OV-3, with SN12C and in the experiment with SNB-19 was > 100 µM (inactive) each time. In the experiment on SR, the GI50 was 80.2 µM (inactive).
With `CC(=O)OCC12C(OC(C)=O)C[C@@H](C)C3(CC(c4ccoc4)OC3=O)C1CCC(O)C21CO1` (stereo partly drawn), the GI50 is > 100 µM (inactive) with 786-0; > 100 µM (inactive) with CAKI-1; > 100 µM (inactive) in the experiment on HCC 2998; above 100 µM in the experiment on HCT-15; > 100 µM (inactive) with HL-60; > 100 µM (inactive) in the experiment on HOP-92. The GI50 was > 100 µM (inactive) in the experiment on HT-29; > 100 µM (inactive) in the experiment with M14; > 100 µM (inactive) in the experiment on NCI-H226; > 100 µM (inactive) in the experiment with NCI-H23; > 10 µM (inactive) in the experiment on NCI-H460; > 100 µM (inactive) in the experiment on OVCAR-5. Moreover, the GI50 in the experiment on SF-268, in the experiment on SK-MEL-5, with SN12C, in the experiment with SNB-19 and in the experiment on SR was > 100 µM (inactive) in each case.
Regarding `CC(=O)n1nc(-c2[nH]c(C)c(-c3nn(C(C)=O)c(=S)o3)c2C)oc1=S`, the GI50 with 786-0 was 97.7 µM (inactive); in the experiment with CAKI-1 it was > 100 µM (inactive); in the experiment on CCRF-CEM it was 12.9 µM (inactive); in the experiment on EKVX it was > 100 µM (inactive); in the experiment on HCC 2998 it was > 100 µM (inactive); in the experiment with HCT-15 it was above 100 µM. In addition, the GI50 in the experiment on HOP-92 is > 100 µM (inactive); in the experiment on HT-29, > 100 µM (inactive); in the experiment on M14 it was > 100 µM (inactive); with NCI-H226, > 54 µM (inactive); in the experiment on NCI-H23 it was > 100 µM (inactive); in the experiment with NCI-H460, > 100 µM (inactive). Further, the GI50 in the experiment with OVCAR-5, with SF-268, in the experiment with SK-MEL-5, with SK-OV-3, in the experiment on SN12C and with SNB-19 was > 100 µM (inactive) each time. In addition, the GI50 with SR was 41 µM (inactive).
With `CCN1CCCn2c(=O)[nH]c3cc(Br)cc1c32`, the GI50 with 786-0 is 65 µM (inactive); with CAKI-1 it was > 100 µM (inactive); in the experiment with CCRF-CEM, > 100 µM (inactive); in the experiment with EKVX, 0.706 µM (active); in the experiment with HCC 2998, > 100 µM (inactive); in the experiment with HCT-15, above 100 µM. Moreover, the GI50 with HL-60 was > 100 µM (inactive); with HT-29 it was > 100 µM (inactive); with M14, > 100 µM (inactive); with NCI-H226, 55.5 µM (inactive); in the experiment with NCI-H23 it was > 100 µM (inactive); in the experiment on NCI-H460 it was > 100 µM (inactive). Moreover, the GI50 with OVCAR-5 is > 100 µM (inactive); in the experiment with SF-268, 24 µM (inactive); in the experiment on SK-MEL-5 it was > 100 µM (inactive); with SK-OV-3 it was 25.2 µM (inactive); with SN12C it was > 100 µM (inactive); in the experiment with SNB-19, 89.1 µM (inactive). The GI50 in the experiment on SR was > 100 µM (inactive).
